Article PMC6858373 (Scientific Reports, 2019)
Counter-ions that a name gives are not always drawn. Like-named read-outs stand apart in the source and are kept apart here.

How the values were obtained:
[1] = target: T1, FGF14:Nav1.6 C-tail complex (Homo sapiens, UniProt Q92915+Q9UQD0); assay: Split-luciferase complementation assay (LCA) in Clone V double stable HEK293 cells; type: cell-based; conditions: for Z-score (LCA primary screening): 30 µM, average of primary screening (n = 2), vs on-plate 0.3% DMSO
T1 construct: polymerase chain reaction (PCR) amplification of the FGF14 open reading frame (nt 1–855); C-terminal fragment of Nav1.6 (amino acids 1763–1976) fused with CD4ΔC-tail (amino acids 1–395); expressed in transfected cells
T1 sequence (Q92915 1-252 isoform Q92915-2): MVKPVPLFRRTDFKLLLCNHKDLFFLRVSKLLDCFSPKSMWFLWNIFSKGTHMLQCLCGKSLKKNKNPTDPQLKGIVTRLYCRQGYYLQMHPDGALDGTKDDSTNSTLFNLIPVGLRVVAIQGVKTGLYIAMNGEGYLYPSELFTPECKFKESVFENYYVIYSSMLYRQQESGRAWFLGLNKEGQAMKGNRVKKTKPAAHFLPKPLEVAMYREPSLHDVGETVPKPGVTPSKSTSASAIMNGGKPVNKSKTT
T1 sequence (Q9UQD0 1763-1976 limits assumed): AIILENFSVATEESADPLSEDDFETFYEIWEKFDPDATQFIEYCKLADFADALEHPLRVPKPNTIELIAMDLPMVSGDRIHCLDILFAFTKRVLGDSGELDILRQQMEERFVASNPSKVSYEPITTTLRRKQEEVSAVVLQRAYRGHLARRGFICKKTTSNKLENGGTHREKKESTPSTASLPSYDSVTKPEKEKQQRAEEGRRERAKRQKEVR

[2] = target: full-length P. pyralis luciferase (Photinus pyralis, UniProt P08659, K549A/L550V/N119G/N50D/S548I); type: cell-based
Sequence of full-length P. pyralis luciferase (P08659 whole entry N50D/N119G/S548I/K549A/L550V, looked up): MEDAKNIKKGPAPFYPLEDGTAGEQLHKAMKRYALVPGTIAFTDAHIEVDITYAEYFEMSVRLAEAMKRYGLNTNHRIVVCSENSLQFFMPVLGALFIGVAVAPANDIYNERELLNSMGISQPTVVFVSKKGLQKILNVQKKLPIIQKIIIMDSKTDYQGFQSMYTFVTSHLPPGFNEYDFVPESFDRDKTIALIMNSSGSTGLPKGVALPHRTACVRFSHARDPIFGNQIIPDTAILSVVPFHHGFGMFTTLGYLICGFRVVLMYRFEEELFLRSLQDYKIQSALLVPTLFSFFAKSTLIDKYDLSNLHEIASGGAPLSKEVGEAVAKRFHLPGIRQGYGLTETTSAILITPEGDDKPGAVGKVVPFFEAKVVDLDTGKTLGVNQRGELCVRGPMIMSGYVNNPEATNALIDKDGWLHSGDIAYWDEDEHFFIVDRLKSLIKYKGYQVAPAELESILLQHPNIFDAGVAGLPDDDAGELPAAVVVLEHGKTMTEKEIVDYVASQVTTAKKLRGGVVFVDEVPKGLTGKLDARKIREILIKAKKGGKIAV

[3] = CC_NCI screening, biological replicate Set 1, normalized to on-plate 0.3% DMSO controls
[4] = CC_NCI screening, biological replicate Set 1, normalized to on-plate 0.3% DMSO controls (n=16 per plate)
[5] = CC_NCI screening, biological replicate Set 2, normalized to on-plate 0.3% DMSO controls
[6] = CC_NCI screening, biological replicate Set 2, normalized to on-plate 0.3% DMSO controls (n=16 per plate)
[7] = average of Set 1 and Set 2, normalized to 0.3% DMSO controls
[8] = CC_NCI screening, normalized to on-plate 0.3% DMSO controls
[9] = CC_NCI screening, LCA luminescence, biological replicate Set 1, normalized to on-plate 0.3% DMSO controls (n=16 per plate)
[10] = CC_NCI screening, LCA luminescence, biological replicate Set 2, normalized to on-plate 0.3% DMSO controls (n=16 per plate)
[11] = CC_NCI screening, LCA, biological replicate Set 1, normalized to on-plate 0.3% DMSO controls
[12] = CC_NCI screening, LCA, biological replicate Set 2, normalized to on-plate 0.3% DMSO controls
[13] = CC_NCI screening, average of Set 1 and Set 2, normalized to 0.3% DMSO controls
[14] = CC_NCI screening, full-length luciferase counter-screen luminescence, normalized to on-plate 0.3% DMSO controls
[15] = CC_NCI screening, full-length luciferase counter-screen, normalized to on-plate 0.3% DMSO controls

Compound | Split Luciferase Assay % Lum Set 1 [1, 9] [%] | Split Luciferase Assay %Lum Set 2 [1, 10] [%] | Split Luciferase Assay Z-score Set 1 [1, 11] | Split Luciferase Assay Z-score Set 2 [1, 12] | Split Luciferase Assay %Lum Avg [1, 13] [%] | Luciferase Assay % Lum [2, 14] [%] | Luciferase Assay Z-score [2, 15] | Toxicity Assay % Fluor (Clone V cells; human, 16 h, 30 µM) [%] | Toxicity Assay Z-score (Clone V cells; human, 16 h, 30 µM) | also measured
N#Cc1c(O)c2c(-c3ccc(-c4ccccc4O)cc3)csc2[nH]c1=O [Compound A-769662] |  |  |  |  |  |  |  |  |  | Split Luciferase Assay Z-score Set 1 [1, 3]: 1.52; Split Luciferase Assay % Lum Set 1 [1, 4]: 118.82%; Split Luciferase Assay Z-score Set 2 [1, 5]: 1.01; Split Luciferase Assay %Lum Set 2 [1, 6]: 112.35%; Split Luciferase Assay %Lum Avg [1, 7]: 115.59%; Toxicity Assay % Fluor (CTB cell viability fluorescence) (Clone V cells): 107.48%; Toxicity Assay Z-score (CTB cell viability) (Clone V cells): 1.05; Luciferase Assay % Lum (full-length luciferase counter-screen) [2, 8]: 79.85%; Luciferase Assay Z-score (full-length luciferase counter-screen) [2, 8]: -2.58
CO[C@H]1/C=C\C=C(/C)C(=O)NC2=CC(=O)C(NCCN(C)C)=C(C[C@@H](C)C[C@H](OC)[C@H](O)[C@@H](C)/C=C(\C)[C@@H]1OC(N)=O)C2=O [Compound 17-DMAG] | 40.55 | 65.54 | -4.80 | -2.80 | 53.04 | 84.54 | -1.98 |  |  | Toxicity Assay % Fluor (Clone V cells): 54.29%; Toxicity Assay Z-score (Clone V cells): -6.39
Cc1ccc(-c2cc(C(F)(F)F)nn2-c2ccc(S(N)(=O)=O)cc2)cc1 [Celecoxib] | 43.81 | 44.73 | -4.54 | -4.50 | 44.27 | 60.07 | -5.11 | 88.16 | -1.66 | 
OC[C@H]1O[C@@H](n2cnc3c2NC=NC[C@H]3O)C[C@@H]1O [Pentostatin] |  |  | 2.75 | 3.80 |  |  |  | 86.56 | -1.88 | Split Luciferase Assay % Lum Set 1 [1]: 134.04%; Split Luciferase Assay %Lum Avg [1]: 140.36%; Split Luciferase Assay %Lum Set 2 [1]: 146.68%; Luciferase Assay % Lum [2]: 97.96%; Luciferase Assay Z-score [2]: -0.26
C[C@]12CC[C@@H]3c4ccc(OC(=O)N(CCCl)CCCl)cc4CC[C@H]3[C@@H]1CC[C@@H]2OP(=O)(O)O [Estramustine phosphate sodium] |  |  |  |  |  |  |  |  |  | Split Luciferase Assay % Lum Set 1 [1]: 26.42%; Split Luciferase Assay %Lum Avg [1]: 32.45%; Split Luciferase Assay %Lum Set 2 [1]: 38.49%; Split Luciferase Assay Z-score Set 1 [1]: -5.95; Split Luciferase Assay Z-score Set 2 [1]: -5.00; Toxicity Assay % Fluor (Clone V cells; human): 92.97%; Toxicity Assay Z-score (Clone V cells; human): -0.98; Luciferase Assay % Lum [2]: 86.35%; Luciferase Assay Z-score [2]: -1.75
NCCCNCCSP(=O)(O)O [Amifostine] | 109.04 | 116.51 | 0.73 | 1.34 | 112.78 |  |  | 93.47 | -0.91 | Luciferase Assay % Lum [2]: 101.20%; Luciferase Assay Z-score [2]: 0.15
COC1=C2C[C@@H](C)C[C@H](OC)[C@H](O)[C@@H](C)/C=C(\C)[C@H](OC(N)=O)[C@@H](OC)/C=C\C=C(/C)C(=O)NC(=CC1=O)C2=O [GELDENAMYCIN] | 70.99 | 86.35 | -2.34 | -1.11 | 78.67 | 102.35 | 0.30 |  |  | Toxicity Assay % Fluor (Clone V cells): 94.70%; Toxicity Assay Z-score (Clone V cells): -0.74
CC[C@H](CO)Nc1nc(NCc2ccccc2)c2ncn(C(C)C)c2n1 [Roscovitine] |  |  |  |  |  |  |  |  |  | Split Luciferase Assay % Lum Set 1 [1]: 32.94%; Split Luciferase Assay %Lum Avg [1]: 39.88%; Split Luciferase Assay %Lum Set 2 [1]: 46.81%; Split Luciferase Assay Z-score Set 1 [1]: -5.42; Split Luciferase Assay Z-score Set 2 [1]: -4.33; Toxicity Assay % Fluor (Clone V cells; human): 99.28%; Toxicity Assay Z-score (Clone V cells; human): -0.10; Luciferase Assay % Lum [2]: 97.39%; Luciferase Assay Z-score [2]: -0.33
CN1CCN(c2ccc3nc(-c4c(N)c5c(F)cccc5[nH]c4=O)[nH]c3c2)CC1 [CHIR 258] | 66.64 | 66.58 | -2.70 | -2.72 | 66.61 | 93.31 | -0.86 | 81.15 | -2.64 | 
O=c1[nH]c(=O)n([C@H]2C[C@H](O)[C@@H](CO)O2)cc1F [Floxuridine, reference compound] | 154.69 |  | 4.42 | 3.04 | 146.01 | 100.29 | 0.04 | 90.13 | -1.38 | Z-score (LCA primary screening) ([1]; 384-well): 3.73; EMax (% Luminescence) ([1]; agonists, Clone V cells, 384-well, normalized to DMSO): 146.01 % Luminescence; EC50 ([1]; estimated, 8-point dose response 0.25-30 µM, n = 4 per concentration, library compounds, read-out: EC50): 2460 nM
CC(/C=C/C(=O)NO)=C\[C@@H](C)C(=O)c1ccc(N(C)C)cc1 [TRICHOSTATIN A] | 147.09 | 94.67 | 3.81 | -0.43 | 120.88 | 33.58 | -8.51 |  |  | Toxicity Assay % Fluor (Clone V cells): 97.32%; Toxicity Assay Z-score (Clone V cells): -0.37
CCc1cc(Nc2nccc(-c3c(-c4ccc(OC)c(C(=O)Nc5c(F)cccc5F)c4)nc4ccccn34)n2)c(OC)cc1N1CCC(N2CCN(S(C)(=O)=O)CC2)CC1 [GSK1904529A] | 116.65 | 92.59 | 1.35 | -0.60 | 104.62 | 86.97 | -1.67 |  |  | Toxicity Assay % Fluor (Clone V cells): 100.76%; Toxicity Assay Z-score (Clone V cells): 0.11
CC1=C2C[C@H]3[C@@H](CC=C4C[C@@H](O)CC[C@@]43C)[C@@H]2CC[C@]12O[C@@H]1C[C@H](C)CN[C@H]1[C@H]2C [CYCLOPAMINE] |  |  |  |  |  |  |  |  |  | Split Luciferase Assay % Lum Set 1 [1]: 141.65%; Split Luciferase Assay %Lum Avg [1]: 122.84%; Split Luciferase Assay %Lum Set 2 [1]: 104.03%; Split Luciferase Assay Z-score Set 1 [1]: 3.37; Split Luciferase Assay Z-score Set 2 [1]: 0.33; Toxicity Assay % Fluor (Clone V cells; human): 85.59%; Toxicity Assay Z-score (Clone V cells; human): -2.01; Luciferase Assay Z-score [2]: 0.81
CN[C@@H]1C[C@H]2O[C@@](C)([C@@H]1OC)n1c3ccccc3c3c4c(c5c6ccccc6n2c5c31)C(=O)NC4 [Staurosporine, reference compound] | 23.16 | 14.56 | -6.21 | -6.95 | 18.86 | 101.58 | 0.20 |  |  | Z-score (LCA primary screening) ([1]; 384-well): −6.58; IMin (% Luminescence) ([1]; antagonists, Clone V cells, 384-well, normalized to DMSO): 18.86 % Luminescence; Toxicity Assay % Fluor (Clone V cells; human): 82.83%; Toxicity Assay Z-score (Clone V cells; human): -2.40
Cc1cc(Nc2ncc3cc(-c4c(Cl)cccc4Cl)c(=O)n(C)c3n2)ccc1F [PD 180970] | 120.99 | 116.51 | 1.70 | 1.34 | 118.75 | 100.96 | 0.12 |  |  | Toxicity Assay % Fluor (Clone V cells): 102.30%; Toxicity Assay Z-score (Clone V cells): 0.32
COc1cccc2c1C(=O)c1c(O)c3c(c(O)c1C2=O)C[C@@](O)(C(=O)CO)C[C@@H]3O[C@H]1C[C@H](N)[C@H](O)[C@H](C)O1 [Doxorubicin hydrochloride] | 49.25 | 58.26 | -4.10 | -3.40 | 53.75 | 78.74 |  | 94.10 | -0.82 | 
NS(=O)(=O)c1nn2cc(-c3ccccc3)nc2s1 [AEG 3482] |  |  |  |  |  |  |  |  |  | Split Luciferase Assay Z-score Set 1 [1, 3]: 1.78; Split Luciferase Assay % Lum Set 1 [1, 4]: 122.08%; Split Luciferase Assay Z-score Set 2 [1, 5]: 1.09; Split Luciferase Assay %Lum Set 2 [1, 6]: 113.39%; Split Luciferase Assay %Lum Avg [1, 7]: 117.74%; Toxicity Assay % Fluor (CTB cell viability fluorescence) (Clone V cells): 105.28%; Toxicity Assay Z-score (CTB cell viability) (Clone V cells): 0.74; Luciferase Assay % Lum (full-length luciferase counter-screen) [2, 8]: 93.96%; Luciferase Assay Z-score (full-length luciferase counter-screen) [2, 8]: -0.77
